{"source": "patent US20260207656A1", "about": "“COMPOSITION FOR PREVENTING AND/OR TREATING METABOLIC DISORDERS AND METHOD OF ITS PREPARATION” (Pharmako Biotechnologies Pty Ltd, priority 2022, published 2026)", "assay": "In vivo study in rats fed a high-fat diet for 3 weeks (Example 2): body weight, blood glucose, liver weight, hepatic enzymes", "design": "species or system Sprague-Dawley rats", "experimental": "Sprague-Dawley rats (8-week-old; OzGene, formerly Animal Resources Centre, Perth) were fed a high-fat diet (22% fat/44% energy from fat, sourced from Specialty Feeds, Glen Forrest WA) where animals were provided access to food ad libitum for a period of 3 weeks. The rats were divided into groups and administered treatments as follows: (i) PBS (negative control), (ii) INU-BEN (1 g/kg), (iii) orlistat (tetrahydrolipstatin) (positive control; 75 mg/kg; Dayang Chem (Hangzhou) Co., Ltd) and (iv) a combination group of INU-BEN (1 g/kg) and orlistat (75 mg/kg). The rats were treated daily between […]. The experimental studies involved monitoring body weight daily, prior to dosing. Thereafter, blood samples were collected (by tail vein) prior to the rats being euthanized and were analysed for blood glucose levels and liver enzyme concentrations. The rats were dissected and analysed for fat pad weight and liver weight. The rat microbiomes were also analysed at the completion of the 3-week treatment period via faecal samples.", "data": [{"smiles": "CCCCCCCCCCC[C@@H](C[C@@H]1OC(=O)[C@H]1CCCCCC)OC(=O)[C@H](CC(C)C)NC=O", "note": "[orlistat, tetrahydrolipstatin]", "values": [{"measurement": "plasma hepatic enzyme concentrations (LDH, ALT, AST)", "setting": "after 3 weeks of treatment, FIGS. 7A-7C", "value": "does not exert a positive impact on plasma hepatic enzyme concentrations"}, {"measurement": "body weight gain (change in rodent body weight normalized to original body weight)", "setting": "daily treatment for 3 weeks, INU-BEN 1 g/kg, orlistat 75 mg/kg, vs PBS negative control, FIG. 3/4", "value": "performed about the same"}]}]}
